pIC50: −log10 of the molar value.
Legend:
[1] = test system: HPAFII (pancreatic) cells; test: Proliferation assay (CellTiter-Glo), HPAFII; format: cell-based; conditions: Homo sapiens, HPAF-II, 72 h, 3 days
Method: (§1) A375 (melanoma), Colo-205 (colon cancer), Miapaca (pancreatic), HPAFII (pancreatic), sNF02.0 (neurofibromatosis type 1), sNF96.2 (neurofibromatosis type 1) and 8505 (Thyroid) cells were grown and maintained in RPMI-1640 medium containing 100 U/mL penicillin-streptomycin and 10% fetal bovine serum. Cells were in growth medium in 96-well opaque-walled clear bottom plates and incubated the in the CO2 incubator overnight before treatment. Cells were treated with compounds diluted in DMSO and a 10 point 3-fold serial dilutions were done. Plates were placed in 37° C., 5% CO2 for to incubate for 3 days. Before they were developed by adding 100 μL of CellTiter-Glo reagent (Promega) to the assay plate, plates were shaken briefly for 2 mins and allowed to incubate at rt for 10 mins. The bottom of the plates was pasted with white back seal and luminescence was recorded with Flexstation3 with setting of luminescence, integration time 500 ms.

[2] = test system: Mia Paca-2 (pancreatic) cells; test: Proliferation assay (CellTiter-Glo), Mia Paca-2; format: cell-based; conditions: Homo sapiens, 72 h, Mia Paca-2 cells, 3 days
Method: as §1

[3] = test system: sNF96.2 (neurofibromatosis type 1) cells; test: Proliferation assay (CellTiter-Glo), sNF96.2; format: cell-based; conditions: 72 h, sNF96.2 cells, 3 days
Method: as §1

[4] = test system: sNF02.2 (neurofibromatosis type 1) cells; test: Proliferation assay (CellTiter-Glo), sNF02.2; format: cell-based; conditions: 72 h, sNF02.2 cells, 3 days
Method: as §1

[5] = test system: A375 (melanoma) cells; test: Proliferation assay (CellTiter-Glo), A375; format: cell-based; conditions: Homo sapiens, A-375, 72 h, 3 days
Method: as §1

[6] = molecular target: Activated ERK2 (Homo sapiens (Human), UniProt P28482); test: Active ERK2 kinase assay (Mobility Shift Assay); format: biochemical
Method in brief: (§2)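 Readout is LabChip mobility-shift, product ratio P/(P+S) from peak heights after a 1 h rt kinase reaction started by adding fluorescent substrate, ATP and metal. Beforehand, enzyme and compound were incubated 30 min at rt in HEPES pH7.5 buffer containing Triton X-100 and DTT.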

[7] = molecular target: Activated ERK1 (Homo sapiens (Human), UniProt P27361); test: Active ERK1 kinase assay (Mobility Shift Assay); format: biochemical
Method in brief: as §2

[8] = test system: Colo-205 (colon cancer) cells; test: Proliferation assay (CellTiter-Glo), Colo-205; format: cell-based; conditions: Homo sapiens, COLO 205, 72 h, Colo205 cells, 3 days
Method: as §1

[9] = test system: 8505C (Thyroid) cells; test: Proliferation assay (CellTiter-Glo), 8505C; format: cell-based; conditions: Homo sapiens, 72 h, 8505C cells, 3 days
Method: as §1

Activated ERK1, sequence (P27361 whole entry): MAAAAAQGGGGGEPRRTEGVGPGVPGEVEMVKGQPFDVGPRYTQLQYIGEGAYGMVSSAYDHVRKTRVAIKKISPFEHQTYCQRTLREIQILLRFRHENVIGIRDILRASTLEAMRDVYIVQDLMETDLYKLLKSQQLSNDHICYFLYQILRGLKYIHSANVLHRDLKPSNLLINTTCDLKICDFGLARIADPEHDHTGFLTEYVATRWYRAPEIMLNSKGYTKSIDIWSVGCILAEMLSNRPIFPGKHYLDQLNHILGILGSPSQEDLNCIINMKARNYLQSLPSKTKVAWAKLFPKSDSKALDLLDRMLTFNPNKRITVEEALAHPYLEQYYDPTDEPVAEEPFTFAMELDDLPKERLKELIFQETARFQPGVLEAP
Activated ERK2, sequence (P28482 whole entry): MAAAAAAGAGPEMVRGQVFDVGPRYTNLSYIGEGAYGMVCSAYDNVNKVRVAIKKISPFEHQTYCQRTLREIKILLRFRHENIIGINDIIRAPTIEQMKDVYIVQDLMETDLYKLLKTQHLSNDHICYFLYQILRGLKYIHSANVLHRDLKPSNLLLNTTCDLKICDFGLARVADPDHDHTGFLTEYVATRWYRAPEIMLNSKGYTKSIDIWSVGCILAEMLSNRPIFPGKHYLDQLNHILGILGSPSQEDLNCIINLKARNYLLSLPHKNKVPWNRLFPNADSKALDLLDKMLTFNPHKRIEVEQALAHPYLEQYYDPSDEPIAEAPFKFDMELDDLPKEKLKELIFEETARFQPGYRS

pIC50 [2] | pIC50 [5] | pIC50 [6] | pIC50 [7] | pIC50 [8] | Structure (SMILES) | pIC50 [1] | pIC50 [3] | pIC50 [4] | pIC50 [9]
≥ 6.30 | ≥ 6.30 | ≥ 7.30 | ≥ 7.30 | ≥ 6.30 | Cc1cc(-c2n[nH]c3ccc(N4CC[C@]5(CCN(CC(=O)N6CC=C(c7ccc(-c8ncn(C)n8)cc7)CC6)C5)C4=O)cc23)ccn1 [Example 8, (S)-7-(2-(4-(4-(1-Methyl-1H-1,2,4-triazol-3-yl)phenyl)-3,6-dihydropyridin-1(2H)-yl)-2-oxoethyl)-2-(3-(2-methylpyridin-4-yl)-1H-indazol-5-yl)-2,7-diazaspiro[4.4]nonan-1-one] | ≥ 6.30 | ≥ 6.30 | ≥ 6.30 | ≥ 6.30
≥ 6.30 | ≥ 6.30 |  | ≥ 7.30 | ≥ 6.30 | CC(C)Nc1cc(-c2c[nH]c(C(=O)N[C@H](CO)c3cccc(Cl)c3)c2)c(Cl)cn1 [BVD-523] | ≥ 6.30 | 6.00 to 6.30 | ≤ 6.00 | ≤ 6.00
≥ 6.30 | ≥ 6.30 | ≥ 7.30 | ≥ 7.30 | ≥ 6.30 | CC(C)Oc1ccc(-c2n[nH]c3ccc(N4CC[C@]5(CCN(CC(=O)N6CC=C(c7ccc(-c8ncn(C)n8)cc7)CC6)C5)C4=O)cc23)cn1 [Example 10, (S)-2-(3-(6-Isopropoxypyridin-3-yl)-1H-indazol-5-yl)-7-(2-(4-(4-(1-methyl-1H-1,2,4-triazol-3-yl)phenyl)-3,6-dihydropyridin-1 (2H)-yl)-2-oxoethyl)-2,7-diazaspiro[4.4]nonan-1-one] | ≥ 6.30 | 6.00 to 6.30 | ≤ 6.00 | ≤ 6.00
≥ 6.30 | ≥ 6.30 | ≥ 7.30 | ≥ 7.30 |  | Cn1cnc(-c2ccc(C3=CCN(C(=O)CN4CC[C@]5(CCN(c6ccc7[nH]nc(-c8ccc(F)cc8)c7c6)C5=O)C4)CC3)cc2)n1 [Example 29, (S)-2-(3-(4-Fluorophenyl)-1H-indazol-5-yl)-7-(2-(4-(4-(1-methyl-1H-1,2,4-triazol-3-yl)phenyl)-3,6-dihydropyridin-1(2H)-yl)-2-oxoethyl)-2,7-diazaspiro[4.4]nonan-1-one] | ≥ 6.30 | ≥ 6.30 | ≥ 6.30 | 6.00 to 6.30
≥ 6.30 | ≥ 6.30 |  | ≥ 7.30 | ≥ 6.30 | O=C(Nc1ccc2[nH]nc(-c3ccncc3)c2c1)[C@@H]1CCN(CC(=O)N2CCN(c3ccc(-c4ncccn4)cc3)CC2)C1 [SCH772984] | ≥ 6.30 | 6.00 to 6.30 | ≥ 6.30 | 6.00 to 6.30

— patent US10493060B2, “Spirocyclic compounds” (ZENO ROYALTIES & MILESTONES, LLC, priority 2015, dated 2019)
